From patent publication US20080242649A1, “New Combination 665” (priority 2007, published 2008)
Structures can show the parent of a compound that is named as a salt.

Assays:
[1] = molecular target: T1, recombinant human Dopamine Subtype D2s receptors (Homo sapiens, UniProt P14416); experiment: Dopamine D2 [3H]-spiperone binding; conditions: inhibition of [3H]-spiperone binding; read-out: D2 bind pIC50 (converted)
T1 construct: purchased Perkin Elmer
Experimental: (§1) Membranes containing recombinant human Dopamine Subtype D2s receptors were obtained from Perkin Elmer. These were diluted in Assay Buffer (50 mM HEPES, 1 mM EDTA, 120 mM NaCl, 0.1% gelatin, pH 7.4) to provide a final concentration of membranes that gave a clear window between maximum and minimum specific binding.
Assays were performed in U-bottomed 96-well polypropylene plates. 30 PL [^3H]-spiperone (0.16 nM final concentration) and 30 μL of Compound A (10× final concentration) were added to each test well. For each assay plate 8 replicates were obtained for [^3H]-spiperone binding in the presence of 30 PL vehicle (10% (v/v) DMSO in Assay Buffer; defining maximum binding) or 30 μL Haloperidol (10 PM final concentration; defining non-specific binding (NSB)). Membranes were then added to achieve a final volume of 300 μL. […] Five washes with 250 μL wash buffer (50 mM HEPES, 1 mM EDTA, 120 mM NaCl, pH 7.4) were performed at 4° C. to remove unbound radioactivity. […] The plates were sealed (TopSeal A) and filter-bound radioactivity was measured with a scintillation counter (TopCount, Packard BioScience) using a 3-minute counting protocol.
(§2) Total specific binding (B0) was determined by subtracting the mean NSB from the mean maximum binding. […]

[2] = molecular target: T2, recombinant human adrenergic beta 1 receptors (Homo sapiens, UniProt P08588); experiment: Adrenergic β1 [125I]-Iodocyanopindolol binding; conditions: inhibition of [125I]-Iodocyanopindolol binding; read-out: β1 bind pIC50 (converted)
T2 construct: purchased Euroscreen
Experimental: as §1, with “adrenergic beta 1” for “Dopamine Subtype D2s”, “Euroscreen.” for “Perkin Elmer.”
Assays were performed in U-bottomed 96-well polypropylene plates. 10 PL [1251]-Iodocyanopindolol (0.036 nM final concentration) and 10 μL of Compound A (10× final concentration) were added to each test well. For each assay plate 8 replicates were obtained for [^125]-Iodocyanopindolol binding in the presence of 10 μL vehicle (10% (v/v) DMSO in Assay Buffer; defining maximum binding) or 10 μL Propranolol (10 μM final concentration; defining non-specific binding (NSB)). Membranes were then added to achieve a final volume of 100 μL. […] Five washes with 250 μL wash buffer (50 mM HEPES, 1 mM EDTA, 120 mM NaCl, pH 7.4) were performed at 4° C. to remove unbound radioactivity. […] The plates were sealed (TopSeal A) and filter-bound radioactivity was measured with a scintillation counter (TopCount, Packard BioScience) using a 3-minute counting protocol.
as §2

[3] = tested on: LPS-induced intra-alveolar neutrophilia; experiment: Intra-alveolar neutrophil migration after intratracheal LPS challenge in the CRL:CD rat; format: in vivo
Experimental: Evaluation of Compound Activity on Intra-Alveolar Neutrophil Migration after Intratracheal Challenge with Lipopolysacharride (LPS) in the CRL:CD Rat
LPS challenge in CRL:CD rats causes an influx of neutrophils into the lungs. Under recoverable gaseous anaesthesia (5% isoflorane in oxygen), rats were dosed via the intratracheal route with vehicle (0.05M phosphate, 0.1% Tween 80, 0.6% saline, pH 6), or compound 30 min before challenge with an intratracheal dose of 10 μg/kg LPS.
The rats (250-400 g) were euthanized 4 hr after LPS challenge with 1 mL pentobarbitone sodium. A tracheotomy was performed and a cannula inserted. The airway was then lavaged using 3 mL Isoton at room temperature. The Isoton (BeckmanCoulter, High Wycombe, UK) was left in the airway for 10 seconds before being removed. The bronchio-alveolar lavage (BAL) fluid containing inflammatory cells was placed into a 15 mL centrifuge tube and kept on ice. This process was repeated three times. An aliquot of BAL fluid was removed and the inflammatory cells were counted on Sysmex (Sysmex UK, Milton Keynes). Neutrophils were expressed in millions/animal (mean ±s.e.mean).

T2 sequence (P08588 whole entry): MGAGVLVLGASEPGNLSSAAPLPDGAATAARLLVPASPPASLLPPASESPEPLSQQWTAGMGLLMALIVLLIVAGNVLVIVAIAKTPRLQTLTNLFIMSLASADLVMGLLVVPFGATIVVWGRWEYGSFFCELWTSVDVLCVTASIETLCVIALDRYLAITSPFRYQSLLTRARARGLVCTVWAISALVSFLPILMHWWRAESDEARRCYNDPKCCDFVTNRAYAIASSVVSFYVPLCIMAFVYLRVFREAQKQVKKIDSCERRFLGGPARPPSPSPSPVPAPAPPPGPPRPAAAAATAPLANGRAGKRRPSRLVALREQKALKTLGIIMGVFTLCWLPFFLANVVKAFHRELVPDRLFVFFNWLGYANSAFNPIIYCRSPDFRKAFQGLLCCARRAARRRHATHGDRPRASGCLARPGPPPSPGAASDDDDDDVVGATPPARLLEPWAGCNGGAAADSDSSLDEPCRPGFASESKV
T1 sequence (P14416 1-414 isoform P14416-2): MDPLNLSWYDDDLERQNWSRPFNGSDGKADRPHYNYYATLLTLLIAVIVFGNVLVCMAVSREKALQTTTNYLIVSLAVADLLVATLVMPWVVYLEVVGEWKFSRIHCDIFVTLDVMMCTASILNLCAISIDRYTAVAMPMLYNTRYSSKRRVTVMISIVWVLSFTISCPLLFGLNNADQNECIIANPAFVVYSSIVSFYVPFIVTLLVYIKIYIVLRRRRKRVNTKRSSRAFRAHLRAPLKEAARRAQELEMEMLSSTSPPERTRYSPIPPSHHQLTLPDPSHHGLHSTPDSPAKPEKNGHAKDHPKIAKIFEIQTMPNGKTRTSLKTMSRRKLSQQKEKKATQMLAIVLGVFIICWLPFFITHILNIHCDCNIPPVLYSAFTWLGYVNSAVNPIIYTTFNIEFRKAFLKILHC

## CCN(CC)CCN(CCNCCc1ccc(O)c2[nH]c(=O)sc12)C(=O)CCOCCc1cccc2ccccc12 [Compound A, N-[2-(Diethylamino)ethyl]-N-(2-{[2-(4-hydroxy-2-oxo-2,3-dihydro-1,3-benzothiazol-7-yl)ethyl]amino}ethyl)-3-[2-(1-naphthyl)ethoxy]propanamide dihydrobromide]
[1]
  IC50: 794 nM
[2]
  IC50: > 10000 nM
[3]; Compound W study, compound A 0.1 μg/kg intratracheal 30 min prior to LPS
  inhibition of neutrophilia: 43%
[3]; Compound W study, compound A 0.1 μg/kg, vehicle/LPS 11±1.8
  neutrophils in BAL: 5.0±0.70 million/animal
[3]; Compound X study, compound A 0.1 μg/kg intratracheal 30 min prior to LPS
  inhibition of neutrophilia: 26%
[3]; Compound X study, compound A 0.1 μg/kg, vehicle/LPS 12±1.7
  neutrophils in BAL: 9.1±1.1 million/animal
[3]; budesonide study, compound A 0.2 μg/kg intratracheal 30 min prior to LPS 10 μg/kg, BAL 4 hr
  inhibition of neutrophilia: 45%
[3]; budesonide study, compound A 0.2 μg/kg intratracheal, mean ±s.e.mean, vehicle/LPS 14±1.6
  neutrophils in BAL: 7.8±0.71 million/animal
